Laboratory results reported in patent US12545673B2, “Imidazopyridine derivative and pharmaceutical composition comprising same as active ingredient” (TSD LIFE SCIENCES CO., LTD., priority 2019, dated 2026).
Where two headings read alike, the source gives them in different places.

Tests used:
[1] = test system: human breast cancer cell line MDA-MB-231; test: Cancer cell proliferation inhibitory activity evaluation 1 (CCK-8), MDA-MB-231; assay type: cell-based; settings: MDA-MB-231, 72 h, read-out: Cancer cell proliferation inhibitory activity MDAMB231
Method: (§1) In order to identify whether the compound has anticancer activity, the human breast cancer cell line MDA-MB-231, the colorectal cancer cell line HT-29, the acute myeloid leukemia cell line U937, and the chronic myeloid leukemia cell line K562 were used. The cell line was cultured using RPMI-1640 medium containing 10% fetal bovine serum. Welgene products were used as the medium, and hyclone products were used for fetal bovine serum, and 1% of antibiotics for cell culture from Gibco were used as the culture medium.

[2] = test system: acute myeloid leukemia cell line U937; test: Cancer cell proliferation inhibitory activity evaluation 1 (CCK-8), U937; assay type: cell-based; settings: Homo sapiens, U-937, 72 h, read-out: Cancer cell proliferation inhibitory activity U937
Method: as §1

[3] = test system: colorectal cancer cell line HT-29; test: Cancer cell proliferation inhibitory activity evaluation 1 (CCK-8), HT-29; assay type: cell-based; settings: Homo sapiens, HT-29, 72 h, read-out: Cancer cell proliferation inhibitory activity HT29
Method: as §1

[4] = test system: chronic myeloid leukemia cell line K562; test: Cancer cell proliferation inhibitory activity evaluation 1 (CCK-8), K562; assay type: cell-based; settings: Homo sapiens, K562, 72 h, read-out: Cancer cell proliferation inhibitory activity K562
Method: as §1

[5] = test system: acute myeloid leukemia cell line U937; test: Cancer cell proliferation inhibitory activity evaluation 2 (CCK-8), U937; assay type: cell-based; settings: Homo sapiens, read-out: Cancer cell proliferation inhibitory activity U937
[6] = test system: acute lymphoblastic leukemia cell line Jurkat; test: Cancer cell proliferation inhibitory activity evaluation 2 (CCK-8), Jurkat; assay type: cell-based; settings: Homo sapiens
[7] = test system: gastric cancer cell line AGS; test: Cancer cell proliferation inhibitory activity evaluation 2 (CCK-8), AGS; assay type: cell-based; settings: Homo sapiens, read-out: Cancer cell proliferation inhibitory activity AGS
LRRK2 wild-type = LRRK2 wild-type (Homo sapiens (Human), UniProt Q5S007); test: Evaluation of inhibitory activity against LRRK2 (affinity bead competition binding), wild-type; settings: read-out: Residual active values (%) LRRK2; for remaining binding at 0.1 µM: 100 nM; for remaining binding at 0.5 µM: 500 nM
How it was run: (§2)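 Competition binding against immobilized biotinylated ligand for DNA-tagged wild-type or G2019S LRRK2, produced from T7 phage-infected E. coli (MOI 0.4, 32° C.) lysate then HEK293 cells. Beads blocked and washed in SeaBlock buffer (1% BSA, 0.05% Tween 20, 1 mM DTT); compounds prepared as 40× stocks in 100% DMSO.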

LRRK2 mutant (G2019S) = LRRK2 mutant (G2019S) (Homo sapiens (Human), UniProt Q5S007, G2019S); test: Evaluation of inhibitory activity against LRRK2 (affinity bead competition binding), G2019S mutant; settings: read-out: Residual active values (%) LRRK2(G2019S); for remaining binding at 0.1 µM: 100 nM; for remaining binding at 0.5 µM: 500 nM
How it was run: as §2

MLK3 = MLK3 (Homo sapiens (Human), UniProt Q16584); test: Evaluation of inhibitory activity of enzyme units, MLK3 ([γ-33P]-ATP filter assay)
α-SMA = test: Fibrosis inhibition evaluation 2, palmitic acid-induced HepG2, real-time PCR, α-SMA; settings: palmitic acid-induced HepG2 (Table 8)
TGF-β1 = test: Fibrosis inhibition evaluation 2, palmitic acid-induced HepG2, real-time PCR, TGF-β1
Fibronectin-1 = test: Fibrosis inhibition evaluation 2, palmitic acid-induced HepG2, real-time PCR, Fibronectin-1
influenza virus PR8 = test: microbe, parasite or virus in culture; assay type: cell-based
influenza virus HK = test: microbe, parasite or virus in culture; assay type: cell-based
influenza virus LE = test: microbe, parasite or virus in culture; assay type: cell-based; settings: unidentified influenza virus, MDCK, read-out: Antiviral activity (EC50, μM) LE
in vitro = settings: dog
MLK2 = MLK2 (Homo sapiens (Human), UniProt Q02779); test: Evaluation of inhibitory activity of enzyme units, MLK2 ([γ-33P]-ATP filter assay); assay type: biochemical
MLK1 = MLK1 (Homo sapiens (Human), UniProt P80192); test: Evaluation of inhibitory activity of enzyme units, MLK1 ([γ-33P]-ATP filter assay); assay type: biochemical
[8] = test system: gastric cancer cell line Hs746T; test: Cancer cell proliferation inhibitory activity evaluation 2 (CCK-8), Hs746T; assay type: cell-based; settings: Homo sapiens
[9] = test system: human lung cancer cell line A549; test: Cancer cell proliferation inhibitory activity evaluation 2 (CCK-8), A549; assay type: cell-based
[10] = 72 h, read-out: Cancer cell proliferation inhibitory activity Jurkat
[11] = U-937, 10 μM, 72 hours, CCK-8 (Table 3)
[12] = 10 μM, 72 hours, CCK-8, read-out: Cancer cell proliferation inhibitory activity Jurkat
[13] = 10 μM, 72 hours, CCK-8, read-out: Cancer cell proliferation inhibitory activity Hs746T
[14] = A549, 10 μM, 72 hours, CCK-8, read-out: Cancer cell proliferation inhibitory activity A549

MLK1, sequence (P80192 whole entry, looked up): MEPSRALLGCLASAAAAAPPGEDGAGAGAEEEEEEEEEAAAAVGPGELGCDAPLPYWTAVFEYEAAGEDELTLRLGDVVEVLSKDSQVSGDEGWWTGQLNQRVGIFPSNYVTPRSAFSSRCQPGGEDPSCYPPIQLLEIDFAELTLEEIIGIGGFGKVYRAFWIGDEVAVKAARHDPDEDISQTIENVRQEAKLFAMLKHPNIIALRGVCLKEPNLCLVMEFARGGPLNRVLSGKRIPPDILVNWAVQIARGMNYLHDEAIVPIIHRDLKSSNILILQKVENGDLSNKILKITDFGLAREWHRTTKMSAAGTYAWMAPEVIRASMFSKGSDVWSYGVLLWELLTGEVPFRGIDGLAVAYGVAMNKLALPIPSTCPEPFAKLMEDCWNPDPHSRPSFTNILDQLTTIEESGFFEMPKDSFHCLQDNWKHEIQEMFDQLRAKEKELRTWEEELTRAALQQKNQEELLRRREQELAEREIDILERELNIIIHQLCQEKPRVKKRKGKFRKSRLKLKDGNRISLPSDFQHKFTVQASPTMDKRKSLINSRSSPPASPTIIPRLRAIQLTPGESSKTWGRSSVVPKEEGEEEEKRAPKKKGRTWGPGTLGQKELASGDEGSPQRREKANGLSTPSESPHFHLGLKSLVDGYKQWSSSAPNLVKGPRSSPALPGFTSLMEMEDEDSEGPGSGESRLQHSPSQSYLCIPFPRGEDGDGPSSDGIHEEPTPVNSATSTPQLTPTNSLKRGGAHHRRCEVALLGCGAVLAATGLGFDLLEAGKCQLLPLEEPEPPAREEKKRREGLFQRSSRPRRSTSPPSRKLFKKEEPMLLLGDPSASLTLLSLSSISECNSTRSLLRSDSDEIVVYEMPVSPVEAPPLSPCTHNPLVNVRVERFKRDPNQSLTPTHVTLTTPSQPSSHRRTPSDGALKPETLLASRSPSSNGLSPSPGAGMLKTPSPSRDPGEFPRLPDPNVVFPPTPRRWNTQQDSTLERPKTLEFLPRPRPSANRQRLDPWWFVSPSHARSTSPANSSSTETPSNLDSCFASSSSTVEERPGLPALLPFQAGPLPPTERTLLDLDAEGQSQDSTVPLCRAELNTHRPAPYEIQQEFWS
LRRK2 wild-type, sequence (Q5S007 whole entry, looked up): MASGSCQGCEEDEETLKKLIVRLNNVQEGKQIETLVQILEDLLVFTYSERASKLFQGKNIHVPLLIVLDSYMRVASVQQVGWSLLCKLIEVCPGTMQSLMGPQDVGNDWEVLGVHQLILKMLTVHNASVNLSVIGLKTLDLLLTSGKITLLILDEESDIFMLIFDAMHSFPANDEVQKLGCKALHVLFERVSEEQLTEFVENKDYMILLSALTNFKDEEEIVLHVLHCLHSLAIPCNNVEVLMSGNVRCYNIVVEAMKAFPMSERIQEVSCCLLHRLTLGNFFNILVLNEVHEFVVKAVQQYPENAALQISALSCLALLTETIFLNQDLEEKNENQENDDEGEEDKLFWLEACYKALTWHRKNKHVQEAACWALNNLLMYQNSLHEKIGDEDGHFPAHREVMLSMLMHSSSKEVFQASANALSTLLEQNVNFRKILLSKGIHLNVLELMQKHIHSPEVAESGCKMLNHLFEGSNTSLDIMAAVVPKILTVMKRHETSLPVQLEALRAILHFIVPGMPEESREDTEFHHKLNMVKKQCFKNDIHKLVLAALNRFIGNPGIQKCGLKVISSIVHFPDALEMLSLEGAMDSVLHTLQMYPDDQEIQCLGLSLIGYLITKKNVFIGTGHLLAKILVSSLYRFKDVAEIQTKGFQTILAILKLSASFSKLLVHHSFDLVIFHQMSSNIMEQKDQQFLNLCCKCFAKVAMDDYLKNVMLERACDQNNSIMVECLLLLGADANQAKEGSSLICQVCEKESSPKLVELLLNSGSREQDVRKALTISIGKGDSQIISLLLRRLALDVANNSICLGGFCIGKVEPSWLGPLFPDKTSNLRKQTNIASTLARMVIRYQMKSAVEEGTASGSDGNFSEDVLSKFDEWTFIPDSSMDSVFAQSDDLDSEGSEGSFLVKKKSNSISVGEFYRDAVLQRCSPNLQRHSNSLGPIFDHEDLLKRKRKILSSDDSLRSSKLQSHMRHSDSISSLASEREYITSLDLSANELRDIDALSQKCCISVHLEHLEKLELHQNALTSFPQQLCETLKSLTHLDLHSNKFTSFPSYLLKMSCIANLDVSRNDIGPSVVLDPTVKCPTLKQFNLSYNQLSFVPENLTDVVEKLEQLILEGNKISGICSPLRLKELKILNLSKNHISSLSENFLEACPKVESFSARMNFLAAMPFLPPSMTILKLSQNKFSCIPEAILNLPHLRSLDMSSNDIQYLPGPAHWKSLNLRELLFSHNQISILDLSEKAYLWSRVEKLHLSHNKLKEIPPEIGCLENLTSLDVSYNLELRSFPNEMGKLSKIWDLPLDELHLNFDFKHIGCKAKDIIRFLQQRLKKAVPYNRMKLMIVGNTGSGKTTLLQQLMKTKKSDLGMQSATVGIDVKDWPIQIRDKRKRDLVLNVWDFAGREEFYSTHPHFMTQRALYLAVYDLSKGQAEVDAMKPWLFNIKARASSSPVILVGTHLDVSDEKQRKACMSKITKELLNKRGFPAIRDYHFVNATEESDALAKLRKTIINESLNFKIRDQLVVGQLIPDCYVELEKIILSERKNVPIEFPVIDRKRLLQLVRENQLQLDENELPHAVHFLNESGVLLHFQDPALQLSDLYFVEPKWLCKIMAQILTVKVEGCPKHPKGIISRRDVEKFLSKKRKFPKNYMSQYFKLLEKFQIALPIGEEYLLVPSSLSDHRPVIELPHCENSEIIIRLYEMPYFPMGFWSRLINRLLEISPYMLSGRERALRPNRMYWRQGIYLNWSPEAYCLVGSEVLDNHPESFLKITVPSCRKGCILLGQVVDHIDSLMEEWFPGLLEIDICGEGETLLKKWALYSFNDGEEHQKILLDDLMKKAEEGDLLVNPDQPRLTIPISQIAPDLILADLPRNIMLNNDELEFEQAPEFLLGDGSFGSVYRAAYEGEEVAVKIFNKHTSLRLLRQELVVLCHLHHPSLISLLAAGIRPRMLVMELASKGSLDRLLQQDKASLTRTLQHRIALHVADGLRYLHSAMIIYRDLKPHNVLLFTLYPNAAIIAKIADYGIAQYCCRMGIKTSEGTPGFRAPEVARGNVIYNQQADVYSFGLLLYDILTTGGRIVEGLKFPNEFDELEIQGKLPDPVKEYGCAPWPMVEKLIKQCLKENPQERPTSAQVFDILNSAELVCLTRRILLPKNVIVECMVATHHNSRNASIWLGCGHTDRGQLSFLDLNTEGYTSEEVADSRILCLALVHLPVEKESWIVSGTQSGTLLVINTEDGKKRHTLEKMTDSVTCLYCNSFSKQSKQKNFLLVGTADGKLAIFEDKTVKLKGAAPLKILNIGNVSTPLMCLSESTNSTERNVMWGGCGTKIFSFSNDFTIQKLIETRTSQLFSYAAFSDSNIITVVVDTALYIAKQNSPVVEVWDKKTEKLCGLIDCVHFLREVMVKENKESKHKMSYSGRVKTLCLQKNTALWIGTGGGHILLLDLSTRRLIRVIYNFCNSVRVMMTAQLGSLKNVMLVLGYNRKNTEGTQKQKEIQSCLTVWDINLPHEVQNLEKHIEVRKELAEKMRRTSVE
LRRK2 mutant (G2019S), sequence (Q5S007 whole entry G2019S, looked up): as the sequence (Q5S007 whole entry, looked up) above, with G2019S counted along it
MLK3, sequence (Q16584 whole entry, looked up): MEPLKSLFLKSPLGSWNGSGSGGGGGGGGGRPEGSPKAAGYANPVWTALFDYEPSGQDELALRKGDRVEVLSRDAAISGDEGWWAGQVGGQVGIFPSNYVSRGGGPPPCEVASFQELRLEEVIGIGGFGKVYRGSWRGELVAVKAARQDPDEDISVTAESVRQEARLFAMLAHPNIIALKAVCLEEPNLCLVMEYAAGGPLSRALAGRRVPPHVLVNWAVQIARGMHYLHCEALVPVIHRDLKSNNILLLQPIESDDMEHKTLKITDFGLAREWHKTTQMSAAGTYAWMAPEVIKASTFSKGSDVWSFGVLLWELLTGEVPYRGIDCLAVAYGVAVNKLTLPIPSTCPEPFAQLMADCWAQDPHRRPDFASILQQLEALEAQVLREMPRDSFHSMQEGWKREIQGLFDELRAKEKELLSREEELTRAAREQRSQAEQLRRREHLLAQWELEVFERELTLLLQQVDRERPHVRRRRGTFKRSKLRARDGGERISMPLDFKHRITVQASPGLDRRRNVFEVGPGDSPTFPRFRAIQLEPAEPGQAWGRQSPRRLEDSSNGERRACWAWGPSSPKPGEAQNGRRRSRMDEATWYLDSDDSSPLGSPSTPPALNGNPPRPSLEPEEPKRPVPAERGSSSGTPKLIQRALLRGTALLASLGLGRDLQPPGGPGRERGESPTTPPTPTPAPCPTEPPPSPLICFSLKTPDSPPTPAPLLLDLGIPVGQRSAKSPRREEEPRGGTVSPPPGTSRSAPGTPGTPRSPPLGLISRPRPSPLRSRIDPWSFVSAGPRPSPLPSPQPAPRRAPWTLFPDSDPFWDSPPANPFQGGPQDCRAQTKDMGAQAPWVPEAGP

SMILES	remaining binding at 0.1 µM (LRRK2 wild-type) [%]	remaining binding at 0.5 µM (LRRK2 wild-type) [%]	remaining binding at 0.1 µM (LRRK2 mutant (G2019S)) [%]	remaining binding at 0.5 µM (LRRK2 mutant (G2019S)) [%]	IC50 (MLK3; read-out: IC50(nM) MLK3) [nM]	Relative degree of expression inhibition (%) α-SMA (α-SMA) [%]	Relative degree of expression inhibition (%) TGF-β1 (TGF-β1) [%]	Relative degree of expression inhibition (%) Fibronectin-1 (Fibronectin-1)	inhibition at 10 µM [5, 11] [%]	inhibition at 10 µM [6, 12] [%]	inhibition at 10 µM ([7]; 10 μM, 72 hours, CCK-8) [%]	IC50 (MLK1) [nM]	further results
CCS(=O)(=O)N1CC[C@H](Nc2c(Br)cnc3[nH]c(-c4cc(C)n(-c5cccc(N6CCOCC6)c5)c4C)nc23)C1 [Example 2, (S)-6-bromo-2-(2,5-dimethyl-1-(3-morpholinophenyl)-1H-pyrrol-3-yl)-N-(1-(ethylsulfonyl)pyrrolidine-3-yl)-3H-imidazo[4,5-b]pyridine-7-amine]	17	3.5	4	0.8	4	48.35	97.39	77.72%					inhibition at 10 µM [1]: > 50%; inhibition at 10 µM [2]: > 50%; inhibition at 10 µM [3]: > 50%; inhibition at 10 µM [4]: > 50%; inhibition at 10 µM ([5]; U-937, 72 h): 10 to 50%; inhibition at 10 µM [6, 10]: 10 to 50%; inhibition at 10 µM ([7]; 72 h): > 50%
CCS(=O)(=O)N1CC[C@H](Nc2c(Br)cnc3[nH]c(-c4cc(C)n(-c5cc(S(N)(=O)=O)ccc5Cl)c4C)nc23)C1 [Example 17, 3-(3-(6-bromo-7-(((S)-1-(ethylsulfonyl)pyrrolidine-3-yl)amino)-3H-imidazo[4,5-b]pyridine-2-yl)-2,5-dimethyl-1H-pyrrol-1-yl)-4-chlorobenzenesulfonamide]									10 to 50	> 50	> 50		Selectivity index: CC50/EC50 PR8 (influenza virus PR8): >1.1; EC50 (influenza virus PR8; unidentified influenza virus, PR8, MDCK, read-out: Antiviral activity (EC50, μM) PR8): 92.9 µM; Selectivity index: CC50/EC50 HK (influenza virus HK): >9.3; EC50 (influenza virus HK; unidentified influenza virus, MDCK, read-out: Antiviral activity (EC50, μM) HK): 10.8 µM; EC50 (influenza virus LE): > 100 µM; CC50 at 3 days (in vitro): > 100 µM; IC50 (MLK3): 12 nM
Cc1cc(-c2nc3c(Nc4ccc5c(c4)OCO5)c(Br)cnc3[nH]2)c(C)n1-c1cccc(S(N)(=O)=O)c1 [Example 44, 3-(3-(7-(benzo[d][1,3]dioxole-5-yl-amino)-6-bromo-3H-imidazo[4,5-b]pyridine-2-yl)-2,5-dimethyl-1H-pyrrol-1-yl)benzenesulfonamide]					27	73.45	57.05	75.60%	10 to 50	10 to 50	10 to 50	109	IC50 (MLK2): 211 nM
COCCOc1ccc(Nc2c(Br)cnc3[nH]c(-c4cc(C)n(-c5ccc6c(c5)OCO6)c4C)nc23)cc1 [Example 45, 2-(1-(benzo[d][1,3]dioxole-5-yl)-2,5-dimethyl-1H-pyrrol-3-yl)-6-bromo-N-(4-(2-methoxyethoxy)phenyl)-3H-imidazo[4,5-b]pyridine-7-amine]					32	74.97	33.15	60.64%	10 to 50	< 10	10 to 50	85	IC50 (MLK2): 524 nM
CCS(=O)(=O)N1CC[C@H](Nc2c(Br)cnc3nc(-c4cc(C)n(-c5cc(C(=O)NCCN(C)C)ccc5C)c4C)[nH]c23)C1 [Example 93, 3-(3-(6-bromo-7-(((S)-1-(ethylsulfonyl)pyrrolidine-3-yl)amino)-1H-imidazo[4,5-b]pyridine-2-yl)-2,5-dimethyl-1H-pyrrol-1-yl)-N-(2-(dimethylamino)ethyl)-4-methylbenzamide]	60	51	66	25	54	73.82	42.54	74.05%				33	inhibition at 10 µM ([5]; U-937, 72 h): > 50%; inhibition at 10 µM [6, 10]: > 50%; inhibition at 10 µM ([7]; 72 h): > 50%; inhibition at 10 µM ([8]; 72 h, read-out: Cancer cell proliferation inhibitory activity Hs746T): > 50%; inhibition at 10 µM ([9]; A549, 72 h, read-out: Cancer cell proliferation inhibitory activity A549): 10 to 50%
Cc1ccc(C(=O)N2CCN(C)CC2)cc1-n1c(C)cc(-c2nc3ncc(Br)c(Nc4cccc(S(N)(=O)=O)c4)c3[nH]2)c1C [Example 95, 3-((6-bromo-2-(2,5-dimethyl-1-(2-methyl-5-(4-methylpiperazine-1-carbonyl)phenyl)-1H-pyrrol-3-yl)-1H-imidazo[4,5-b]pyridine-7-yl)amino)benzenesulfonamide]	68	43	79	24	60	67.81	45.25	65.78%	< 10	10 to 50	10 to 50	37	inhibition at 10 µM [8, 13]: 10 to 50%; inhibition at 10 µM [9, 14]: < 10%
Cc1ccc(C(=O)NCCN(C)C)cc1-n1c(C)cc(-c2nc3ncc(Br)c(Nc4cccc(S(N)(=O)=O)c4)c3[nH]2)c1C [Example 96, 3-(3-(6-bromo-7-((3-sulfamoylphenyl)amino)-1H-imidazo[4,5-b]pyridine-2-yl)-2,5-dimethyl-1H-pyrrol-1-yl)-N-(2-(dimethylamino)ethyl)-4-methylbenzamide]	0.4	0	0.8	0.6	137	37.83	92.86	61.67. %	< 10	< 10	< 10	145	inhibition at 10 µM [8, 13]: 10 to 50%; inhibition at 10 µM [9, 14]: < 10%
